Columns and labels:
[1] = Inhibition of Dengue virus 2 NS5 polymerase-mediated RNA synthesis expressed in Escherichia coli Rosetta pLac1 cells assessed as [3H]GTP incorporation after 5 mins by scintillation counting; parameters: species or system dengue virus type 2
[2] = Growth inhibition of human KB cells at 10 ug/ml; type: cell-based; details: read-out: GI
[3] = Inhibition of Bovine diarrhea virus NS5 polymerase-mediated RNA synthesis expressed in Escherichia coli Rosetta pLac1 cells assessed as [3H]GTP incorporation after 5 mins by scintillation counting; parameters: species or system Bovine viral diarrhea virus 1
KB = test: Cytotoxicity against human KB cells; type: cell-based

Row | Compound | IC50 ([1]; read-out: IC50) [µM] | inhibition at 10 ug/ml [2] [%] | IC50 [3] [µM] | IC50 (KB) [µM] | IC50 [1]
1 | O=C(O)CCC[C@@H](/C=C/c1ccccc1)c1c(O)cc2c(c1O)C(=O)C[C@H](c1ccccc1)O2 | 9 | 11 | > 50 |  | 
2 | O=C(O)CCC[C@H](/C=C/c1ccccc1)c1c(O)cc2c(c1O)C(=O)C[C@H](c1ccccc1)O2 | 15.3 | 0 | > 50 |  | 
3 | Nc1nc2c(ncn2[C@@H]2O[C@H](COP(=O)(O)OP(=O)(O)OP(=O)(O)O)C[C@H]2O)c(=O)[nH]1 | 0.02 |  | < 1 |  | 
4 | O=C(O)CCCC(/C=C/c1ccccc1)c1c(O)c2c(c(C(/C=C/c3ccccc3)CCCC(=O)O)c1O)OC(c1ccccc1)CC2=O (racemic) | 2.4 | 0 | > 50 |  | 
5 | O=C(O)CCC/C=C/C(c1ccccc1)c1c(O)c(C(/C=C/c2ccccc2)CCCC(=O)O)c(O)c2c1OC(c1ccccc1)CC2=O (racemic) | 2.9 | 0 | > 50 |  | 
6 | O=C(O)CCC/C=C/C(c1ccccc1)c1c(O)c2c(c(C(/C=C/c3ccccc3)CCCC(=O)O)c1O)OC(c1ccccc1)CC2=O (racemic) | 1.8 | 0 | > 50 |  | 
7 | O=C(O)CCC/C=C/C(c1ccccc1)c1c(O)c2c(c(C(/C=C/CCCC(=O)O)c3ccccc3)c1O)OC(c1ccccc1)CC2=O (racemic) | 4.2 | 0 | > 50 |  | 
8 | O=C(O)CCC/C=C/C(c1ccccc1)c1c(O)cc2c(c1O)C(=O)CC(c1ccccc1)O2 (racemic) | 72.5 | 0 | > 50 |  | 
9 | O=C(O)CCCC(/C=C/c1ccccc1)c1c(O)cc2c(c1O)C(=O)CC(c1ccccc1)O2 (racemic) | 14.8 | 3.2 | > 50 |  | 
10 | O=C(O)CCC[C@H](/C=C/c1ccccc1)c1c(O)cc2c(c1O)C(=O)C[C@@H](c1ccccc1)O2 [CHARTACEONE A3] | 27 | 0 | > 50 |  | 
11 | O=C(O)CCC[C@@H](/C=C/c1ccccc1)c1c(O)cc2c(c1O)C(=O)C[C@@H](c1ccccc1)O2 [CHARTACEONE A4] | 7.4 | 6 | > 50 |  | 
12 | CC(=O)O[C@@]12CO[C@@H]1C[C@H](O)[C@@]1(C)C(=O)[C@H](O)C3=C(C)[C@@H](OC(=O)[C@H](O)[C@@H](NC(=O)OC(C)(C)C)c4ccccc4)C[C@@](O)([C@@H](OC(=O)c4ccccc4)[C@H]21)C3(C)C [DOCETAXEL] |  |  |  | 0.015 | 
13 | O=C1C[C@@H](c2ccccc2)Oc2cc(O)cc(O)c21 [PINOCEMBRIN] |  | 0 |  |  | Not Active

— ChEMBL document CHEMBL1938341, “Alkylated flavanones from the bark of Cryptocarya chartacea as dengue virus NS5 polymerase inhibitors” (J Nat Prod, 2011)
